Source: ChEMBL document CHEMBL1201862, “PubChem BioAssay data set” (2004)
Activity calls are given as the source filed them.

Assays:
Cytochrome P450 3A4 = Cytochrome P450 3A4 (Homo sapiens, UniProt P08684);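 further: CYP3A4 tested as one member of a cytochrome P450 panel screen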
[1] = target: T1, High affinity choline transporter 1 (Homo sapiens, UniProt Q9GZV3); test: human choline transporter blockers, potency – cell-based, 5-point CRC, membrane potential dye, dose response (AID 504840); type: functional
T1 sequence (Q9GZV3 whole entry): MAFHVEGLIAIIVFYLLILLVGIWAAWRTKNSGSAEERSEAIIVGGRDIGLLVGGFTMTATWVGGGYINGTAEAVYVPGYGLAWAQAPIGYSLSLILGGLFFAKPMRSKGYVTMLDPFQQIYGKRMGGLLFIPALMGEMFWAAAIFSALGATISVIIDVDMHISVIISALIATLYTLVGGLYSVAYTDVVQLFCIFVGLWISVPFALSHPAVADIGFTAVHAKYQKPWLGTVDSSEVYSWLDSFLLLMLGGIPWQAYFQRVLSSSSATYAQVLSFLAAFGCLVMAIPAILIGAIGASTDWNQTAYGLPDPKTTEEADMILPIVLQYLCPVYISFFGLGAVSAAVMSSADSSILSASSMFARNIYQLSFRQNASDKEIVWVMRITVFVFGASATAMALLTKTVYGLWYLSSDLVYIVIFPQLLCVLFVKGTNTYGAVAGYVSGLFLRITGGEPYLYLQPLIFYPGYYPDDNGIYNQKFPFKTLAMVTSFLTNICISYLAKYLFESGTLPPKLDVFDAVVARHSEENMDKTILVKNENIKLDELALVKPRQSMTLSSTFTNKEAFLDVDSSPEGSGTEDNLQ

Cytochrome P450 1A2 = target: T2, Cytochrome P450 1A2 (Homo sapiens, UniProt P05177);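 further: PubChem cytochrome P450 panel assay, CYP1A2 panel member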
T2 sequence (P05177 whole entry): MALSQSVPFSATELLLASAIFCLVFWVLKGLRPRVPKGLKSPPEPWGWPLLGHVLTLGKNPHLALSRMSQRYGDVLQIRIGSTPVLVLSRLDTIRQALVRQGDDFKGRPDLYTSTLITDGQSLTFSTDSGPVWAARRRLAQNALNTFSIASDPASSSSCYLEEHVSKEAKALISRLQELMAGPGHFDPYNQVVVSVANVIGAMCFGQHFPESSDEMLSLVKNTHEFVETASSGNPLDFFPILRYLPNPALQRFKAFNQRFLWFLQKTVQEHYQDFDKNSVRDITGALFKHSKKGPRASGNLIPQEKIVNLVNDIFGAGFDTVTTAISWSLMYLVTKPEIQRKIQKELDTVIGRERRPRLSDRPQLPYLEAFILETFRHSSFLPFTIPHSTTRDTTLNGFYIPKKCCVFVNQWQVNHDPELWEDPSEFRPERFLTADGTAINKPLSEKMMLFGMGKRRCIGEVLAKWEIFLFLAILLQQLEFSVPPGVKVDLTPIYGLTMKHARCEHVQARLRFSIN

Cytochrome P450 2D6 = Cytochrome P450 2D6 (Homo sapiens, UniProt P10635);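 further: CYP2D6 member of a cytochrome P450 panel assay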
Cytochrome P450 2C19 = Cytochrome P450 2C19 (Homo sapiens, UniProt P33261); test: Cytochrome panel assay with activity outcomes. Panel member name: p450-cyp2c19 Compounds with AC50 equal or less than 10 uM are considered active; type: functional; conditions: read-out: AC50
Cytochrome P450 2C9 = Cytochrome P450 2C9 (Homo sapiens, UniProt P11712)
[2] = target: Peroxisome proliferator-activated receptor gamma/Nuclear receptor coactivator 1 (Homo sapiens, UniProt P37231); test: (§1) TR-FRET dose response biochemical High Throughput Screening assay for agonists of the steroid receptor coactivator 1 (SRC-1) recruitment by the peroxisome proliferator-activated receptor gamma (PPAR gamma): non-selective agonists. [Related pubchem assays (depositor defined):AID1300, AID1808, AID504735, AID631]; type: protein assay
[3] = target: Peroxisome proliferator-activated receptor gamma/Nuclear receptor coactivator 3 (Homo sapiens, UniProt P37231); test: as §1, with “3 (SRC-3)” for “1 (SRC-1)”, “assays: 1301 (Confirmation screen.), 1048 (Primary screen.)]” for “assays (depositor defined):AID1300, AID1808, AID504735, AID631]”; type: functional
[4] = target: Peroxisome proliferator-activated receptor gamma/Nuclear receptor coactivator 2 (Homo sapiens, UniProt P37231); test: TR-FRET dose response biochemical High Throughput Screening assay for agonists of the steroid receptor coactivator 2 (SRC-2) recruitment by the peroxisome proliferator-activated receptor gamma (PPAR gamma): non-selective agonists. [Related pubchem assays: 1297, 1032 ]; type: functional
[5] = target: T3, Short transient receptor potential channel 4 (Mus musculus, UniProt Q9QUQ5); test: block of DAMGO-driven TRPC4 calcium entry – cell-based, HEK293 TRPC4/mu-opioid, Fluo-4 calcium, dose response (AID 434942); type: functional;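 further: potency of inhibitors blocking the TRPC4 calcium response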
T3 sequence (Q9QUQ5 whole entry): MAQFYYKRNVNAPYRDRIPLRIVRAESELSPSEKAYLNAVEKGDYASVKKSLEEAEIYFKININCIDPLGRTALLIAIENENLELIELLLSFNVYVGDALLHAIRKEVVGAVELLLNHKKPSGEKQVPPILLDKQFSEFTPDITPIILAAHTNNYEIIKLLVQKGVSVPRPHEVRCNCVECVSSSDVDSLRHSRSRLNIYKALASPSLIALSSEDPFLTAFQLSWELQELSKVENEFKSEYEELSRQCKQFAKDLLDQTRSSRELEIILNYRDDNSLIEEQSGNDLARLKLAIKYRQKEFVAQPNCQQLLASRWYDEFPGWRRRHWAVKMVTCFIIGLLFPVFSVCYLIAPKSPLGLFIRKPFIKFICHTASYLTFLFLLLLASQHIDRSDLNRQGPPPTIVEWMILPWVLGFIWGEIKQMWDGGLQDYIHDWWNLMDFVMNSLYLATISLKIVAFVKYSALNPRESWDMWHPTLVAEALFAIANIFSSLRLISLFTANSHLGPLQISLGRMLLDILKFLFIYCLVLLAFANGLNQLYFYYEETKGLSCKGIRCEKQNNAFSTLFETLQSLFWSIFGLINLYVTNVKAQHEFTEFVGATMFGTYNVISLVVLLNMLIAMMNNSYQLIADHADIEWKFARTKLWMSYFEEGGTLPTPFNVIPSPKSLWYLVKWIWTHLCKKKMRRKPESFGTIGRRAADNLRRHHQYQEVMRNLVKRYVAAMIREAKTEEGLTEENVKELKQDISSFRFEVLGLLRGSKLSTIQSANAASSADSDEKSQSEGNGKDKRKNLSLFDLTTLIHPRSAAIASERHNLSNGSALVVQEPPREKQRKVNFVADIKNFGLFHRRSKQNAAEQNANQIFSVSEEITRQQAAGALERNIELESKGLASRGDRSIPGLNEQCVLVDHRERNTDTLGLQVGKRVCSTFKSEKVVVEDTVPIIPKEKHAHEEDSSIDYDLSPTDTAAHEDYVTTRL

[6] = target: DNA dC->dU-editing enzyme APOBEC-3G (Homo sapiens, UniProt Q9HC16); type: functional;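 further: Dose-response counterscreen measuring inhibition of APOBEC3G DNA deaminase activity, run while confirming APOBEC3A inhibitors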
Protein skinhead-1 = target: T4, Protein skinhead-1 (Caenorhabditis elegans, UniProt P34707); type: functional
T4 sequence (P34707 whole entry): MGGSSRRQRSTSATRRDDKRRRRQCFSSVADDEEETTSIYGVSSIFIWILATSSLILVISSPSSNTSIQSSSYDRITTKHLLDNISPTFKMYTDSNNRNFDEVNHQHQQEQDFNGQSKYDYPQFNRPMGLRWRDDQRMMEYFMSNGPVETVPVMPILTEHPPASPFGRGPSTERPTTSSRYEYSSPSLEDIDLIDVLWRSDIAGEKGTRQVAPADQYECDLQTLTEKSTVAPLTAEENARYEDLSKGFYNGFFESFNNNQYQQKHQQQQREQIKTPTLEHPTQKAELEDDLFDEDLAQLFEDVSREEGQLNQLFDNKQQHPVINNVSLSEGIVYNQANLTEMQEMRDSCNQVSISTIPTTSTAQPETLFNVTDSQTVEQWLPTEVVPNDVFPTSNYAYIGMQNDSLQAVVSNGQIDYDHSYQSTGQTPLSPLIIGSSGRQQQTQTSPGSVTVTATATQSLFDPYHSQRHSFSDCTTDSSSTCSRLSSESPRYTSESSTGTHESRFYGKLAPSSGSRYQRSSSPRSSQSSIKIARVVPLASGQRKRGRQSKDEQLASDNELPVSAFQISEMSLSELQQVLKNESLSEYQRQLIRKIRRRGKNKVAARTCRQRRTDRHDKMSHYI

[7] = target: DNA dC->dU-editing enzyme APOBEC-3A (Homo sapiens, UniProt P31941); test: Dose Response confirmation of small molecule APOBEC3A DNA Deaminase Inhibitors via a fluorescence-based single-stranded DNA deaminase assay. [Related pubchem assays (depositor defined):AID493011, AID493024]; type: functional
Prothrombin = Prothrombin (Homo sapiens, UniProt P00734); test: Thrombin 1536 HTS Dose Response Confirmation. [Related pubchem assays: 1046 (Thrombin 1536 HTS; hits were confirmed in this assay)]; type: functional
cells = type: functional

DNA dC->dU-editing enzyme APOBEC-3A, sequence (P31941 whole entry): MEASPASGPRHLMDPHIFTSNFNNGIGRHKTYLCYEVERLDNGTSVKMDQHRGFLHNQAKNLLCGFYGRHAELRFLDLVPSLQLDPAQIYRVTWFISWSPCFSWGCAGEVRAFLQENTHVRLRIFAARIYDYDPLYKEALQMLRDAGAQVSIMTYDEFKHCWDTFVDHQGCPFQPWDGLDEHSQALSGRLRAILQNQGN
Peroxisome proliferator-activated receptor gamma/Nuclear receptor coactivator 2, sequence (P37231 whole entry): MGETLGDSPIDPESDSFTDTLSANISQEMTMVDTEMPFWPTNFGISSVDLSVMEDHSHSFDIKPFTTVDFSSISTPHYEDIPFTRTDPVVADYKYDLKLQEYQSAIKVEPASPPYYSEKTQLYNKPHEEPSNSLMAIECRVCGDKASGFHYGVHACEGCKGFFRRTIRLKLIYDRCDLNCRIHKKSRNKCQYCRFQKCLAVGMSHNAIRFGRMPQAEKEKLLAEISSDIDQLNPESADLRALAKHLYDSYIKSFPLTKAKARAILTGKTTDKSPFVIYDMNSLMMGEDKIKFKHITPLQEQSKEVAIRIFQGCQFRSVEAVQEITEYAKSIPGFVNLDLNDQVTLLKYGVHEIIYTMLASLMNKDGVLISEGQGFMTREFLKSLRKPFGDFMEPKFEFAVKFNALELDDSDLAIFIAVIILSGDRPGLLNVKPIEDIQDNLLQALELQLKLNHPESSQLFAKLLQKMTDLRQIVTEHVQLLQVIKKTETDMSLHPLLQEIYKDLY
Peroxisome proliferator-activated receptor gamma/Nuclear receptor coactivator 2, sequence (Q15596 whole entry, further chain): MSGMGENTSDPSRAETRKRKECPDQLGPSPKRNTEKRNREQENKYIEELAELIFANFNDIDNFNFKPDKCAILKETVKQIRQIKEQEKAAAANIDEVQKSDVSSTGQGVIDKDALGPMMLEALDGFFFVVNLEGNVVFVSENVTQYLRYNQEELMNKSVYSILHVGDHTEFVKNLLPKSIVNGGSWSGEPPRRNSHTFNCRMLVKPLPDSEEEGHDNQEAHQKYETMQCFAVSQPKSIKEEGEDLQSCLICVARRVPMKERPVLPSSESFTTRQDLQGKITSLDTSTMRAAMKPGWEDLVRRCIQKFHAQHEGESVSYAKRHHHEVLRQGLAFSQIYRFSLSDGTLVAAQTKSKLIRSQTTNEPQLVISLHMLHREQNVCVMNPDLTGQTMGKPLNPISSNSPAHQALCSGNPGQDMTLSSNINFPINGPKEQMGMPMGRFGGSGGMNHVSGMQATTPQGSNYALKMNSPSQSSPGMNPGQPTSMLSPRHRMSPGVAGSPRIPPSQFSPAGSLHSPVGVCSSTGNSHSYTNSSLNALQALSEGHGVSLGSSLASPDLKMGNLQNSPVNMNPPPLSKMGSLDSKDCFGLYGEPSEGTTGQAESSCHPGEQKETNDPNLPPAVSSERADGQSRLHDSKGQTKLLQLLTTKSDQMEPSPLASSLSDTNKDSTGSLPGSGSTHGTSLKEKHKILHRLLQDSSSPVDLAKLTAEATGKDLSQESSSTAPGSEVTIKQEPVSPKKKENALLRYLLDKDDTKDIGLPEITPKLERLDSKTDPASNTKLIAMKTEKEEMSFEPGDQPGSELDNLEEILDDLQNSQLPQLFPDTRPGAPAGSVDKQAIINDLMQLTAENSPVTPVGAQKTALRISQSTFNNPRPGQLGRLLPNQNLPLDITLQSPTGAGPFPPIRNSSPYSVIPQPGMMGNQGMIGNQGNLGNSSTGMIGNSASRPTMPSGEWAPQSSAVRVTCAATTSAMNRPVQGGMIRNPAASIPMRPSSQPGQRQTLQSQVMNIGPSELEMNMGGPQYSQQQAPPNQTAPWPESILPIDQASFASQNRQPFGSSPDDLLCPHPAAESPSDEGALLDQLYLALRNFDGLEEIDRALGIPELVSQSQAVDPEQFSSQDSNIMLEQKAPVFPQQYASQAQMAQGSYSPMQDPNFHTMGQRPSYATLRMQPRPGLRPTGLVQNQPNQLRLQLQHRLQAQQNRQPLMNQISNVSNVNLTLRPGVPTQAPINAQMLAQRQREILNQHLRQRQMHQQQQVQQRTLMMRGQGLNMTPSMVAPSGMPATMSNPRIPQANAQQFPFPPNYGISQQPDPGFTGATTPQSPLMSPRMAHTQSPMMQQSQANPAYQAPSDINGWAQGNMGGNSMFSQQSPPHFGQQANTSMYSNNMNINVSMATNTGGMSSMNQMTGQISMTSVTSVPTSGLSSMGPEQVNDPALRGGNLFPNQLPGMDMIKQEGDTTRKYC
Peroxisome proliferator-activated receptor gamma/Nuclear receptor coactivator 1, sequence (P37231 whole entry): as the sequence (P37231 whole entry) above
Peroxisome proliferator-activated receptor gamma/Nuclear receptor coactivator 1, sequence (Q15788 whole entry, further chain): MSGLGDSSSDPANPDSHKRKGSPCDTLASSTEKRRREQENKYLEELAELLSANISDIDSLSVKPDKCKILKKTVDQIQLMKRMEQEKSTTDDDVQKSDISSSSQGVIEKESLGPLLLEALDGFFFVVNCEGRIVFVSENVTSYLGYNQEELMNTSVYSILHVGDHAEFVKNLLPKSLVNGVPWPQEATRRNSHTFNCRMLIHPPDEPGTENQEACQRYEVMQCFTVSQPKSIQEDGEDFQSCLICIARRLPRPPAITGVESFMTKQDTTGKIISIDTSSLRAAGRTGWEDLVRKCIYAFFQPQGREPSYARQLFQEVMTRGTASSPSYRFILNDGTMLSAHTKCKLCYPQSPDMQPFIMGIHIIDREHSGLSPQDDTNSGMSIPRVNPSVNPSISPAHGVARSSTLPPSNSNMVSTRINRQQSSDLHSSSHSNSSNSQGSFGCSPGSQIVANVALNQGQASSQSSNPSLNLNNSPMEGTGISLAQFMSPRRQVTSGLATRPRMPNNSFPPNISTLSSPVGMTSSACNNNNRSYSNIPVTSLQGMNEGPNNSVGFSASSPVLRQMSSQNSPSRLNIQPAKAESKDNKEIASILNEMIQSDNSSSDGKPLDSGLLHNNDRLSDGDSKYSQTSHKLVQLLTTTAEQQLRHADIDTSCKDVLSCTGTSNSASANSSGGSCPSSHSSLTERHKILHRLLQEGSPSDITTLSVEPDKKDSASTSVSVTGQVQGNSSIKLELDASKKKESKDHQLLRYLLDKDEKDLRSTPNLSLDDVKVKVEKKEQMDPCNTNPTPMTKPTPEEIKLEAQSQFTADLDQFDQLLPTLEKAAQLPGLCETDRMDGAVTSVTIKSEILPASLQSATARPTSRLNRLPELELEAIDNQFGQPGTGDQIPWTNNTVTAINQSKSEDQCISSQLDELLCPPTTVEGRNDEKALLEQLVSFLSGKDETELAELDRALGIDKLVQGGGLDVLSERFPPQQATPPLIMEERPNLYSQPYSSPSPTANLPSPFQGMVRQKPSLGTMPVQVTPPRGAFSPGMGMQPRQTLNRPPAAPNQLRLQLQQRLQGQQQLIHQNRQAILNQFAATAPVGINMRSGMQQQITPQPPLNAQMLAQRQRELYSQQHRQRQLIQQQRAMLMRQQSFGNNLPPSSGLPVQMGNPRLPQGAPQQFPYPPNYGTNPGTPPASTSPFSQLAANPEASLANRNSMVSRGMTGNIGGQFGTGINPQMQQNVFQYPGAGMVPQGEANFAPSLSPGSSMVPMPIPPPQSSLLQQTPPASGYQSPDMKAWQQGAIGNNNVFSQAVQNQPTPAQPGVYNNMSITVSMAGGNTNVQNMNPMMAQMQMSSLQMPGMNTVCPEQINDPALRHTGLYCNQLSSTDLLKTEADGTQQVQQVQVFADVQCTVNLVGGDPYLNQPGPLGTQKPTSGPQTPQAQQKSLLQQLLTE
DNA dC->dU-editing enzyme APOBEC-3G, sequence (Q9HC16 whole entry): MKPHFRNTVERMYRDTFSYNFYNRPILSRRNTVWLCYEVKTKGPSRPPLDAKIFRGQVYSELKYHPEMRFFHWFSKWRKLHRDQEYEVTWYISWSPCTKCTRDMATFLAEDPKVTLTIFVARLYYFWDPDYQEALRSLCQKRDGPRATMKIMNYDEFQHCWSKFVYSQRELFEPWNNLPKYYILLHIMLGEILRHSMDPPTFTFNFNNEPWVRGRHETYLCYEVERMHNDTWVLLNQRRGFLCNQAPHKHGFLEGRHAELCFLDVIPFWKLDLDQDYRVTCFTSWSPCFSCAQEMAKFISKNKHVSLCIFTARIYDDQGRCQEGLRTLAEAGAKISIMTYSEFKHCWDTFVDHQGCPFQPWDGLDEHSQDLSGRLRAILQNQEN
Cytochrome P450 2C9, sequence (P11712 whole entry): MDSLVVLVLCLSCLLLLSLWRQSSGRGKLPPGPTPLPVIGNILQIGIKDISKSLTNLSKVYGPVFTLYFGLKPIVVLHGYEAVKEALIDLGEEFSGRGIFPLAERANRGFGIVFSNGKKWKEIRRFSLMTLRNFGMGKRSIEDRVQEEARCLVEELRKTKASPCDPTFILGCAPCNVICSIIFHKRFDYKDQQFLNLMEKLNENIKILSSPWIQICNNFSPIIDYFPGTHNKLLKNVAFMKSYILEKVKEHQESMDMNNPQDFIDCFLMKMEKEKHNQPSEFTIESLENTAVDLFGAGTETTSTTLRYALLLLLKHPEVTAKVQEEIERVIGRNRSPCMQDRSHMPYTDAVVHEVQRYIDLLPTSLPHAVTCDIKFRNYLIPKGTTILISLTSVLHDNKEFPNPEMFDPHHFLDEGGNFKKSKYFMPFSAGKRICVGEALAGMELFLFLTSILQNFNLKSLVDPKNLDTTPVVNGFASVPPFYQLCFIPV

Row | SMILES | EC50 [2] | EC50 [3] | EC50 [4] | IC50 [6] | IC50 [7] | further results
1 | CCCCn1nc2cc(C(=O)NC3CCCc4ccccc43)ccc2c1OCC (stereo unspecified) | – | – | – | – | – | AC50 (Cytochrome P450 3A4): 35.5 µM (inconclusive); IC50 [1]: 12.9 µM (active); AC50 (Cytochrome P450 1A2): 39.8 µM (inconclusive); AC50 (Cytochrome P450 2D6): 22.4 µM (inconclusive); AC50 (Cytochrome P450 2C19): 39.8 µM (inconclusive); AC50 (Cytochrome P450 2C9): 22.4 µM (inconclusive)
2 | Cn1c(=O)cc(SCC(=O)N2CCC3(CC2)OCCO3)c2ccc(Cl)cc21 | > 79.4 µM (inactive) | > 79.4 µM (not active) | > 79.4 µM (not active) | – | – | –
3 | CSCCNCc1cn(-c2ccc(F)cc2F)nc1-c1ccccc1C | – | – | – | – | – | EC50 [5]: 5.96 µM (active)
4 | O=[N+]([O-])c1ccc2nc(N3CCCC3)sc2c1 | – | – | – | 4.86 µM (active) | 5.31 µM (active) | IC50 (Protein skinhead-1): 39.1 µM (active)
5 | C[N+]1(C)CCN(c2ccccc2)CC1 [DIMETHYLPHENYLPIPERAZINIUM IODIDE] | – | – | – | 2.62 µM (active) | 1.93 µM (active) | –
6 | N#Cc1ccc(-c2ccc3c(c2)OCO3)nc1SCC(=O)OCc1ccccc1 | 5.85 µM (active) | 20.4 µM (not active) | 7.23 µM (active) | – | – | –
7 | CN(C)c1cc[n+](CC(=O)Nc2ccc(OC(F)F)cc2)cc1 | – | – | – | 4.21 µM (active) | 2.44 µM (active) | –
8 | N=c1n(CCO)c2ccccc2n1Cc1ccccc1 | – | – | – | – | – | EC50 [5]: 5.31 µM (active); IC50 (Prothrombin): > 50 µM (not active)
9 | Sc1ncnc2sc(-c3ccccc3)cc12 | 8.82 µM (active) | > 79.4 µM (not active) | 34.7 µM (not active) | – | – | IC50 (cells): 49.3 µM (active)
